Test results: ChEMBL document CHEMBL3822401, “PEGylated Bis-Sulfonamide Carbonic Anhydrase Inhibitors Can Efficiently Control the Growth of Several Carbonic Anhydrase IX-Expressing Carcinomas” (J Med Chem, 2016)
One block for each compound: values may come before it. Active and inactive are the calls of the source. No cut-off for these calls is given here.

How the values were obtained:
Carbonic anhydrase 9 = Carbonic anhydrase 9 (Homo sapiens, UniProt Q16790)
Description: Inhibition of human recombinant carbonic anhydrase 9 preincubated for 15 mins prior to testing by stopped-flow CO2 hydration assay

MDA-MB-231 [1] = test: Cytotoxicity against human MDA-MB-231 cells expressing carbonic anhydrase 9/12 assessed as cell viability at 10 uM after 24 hrs under hypoxic conditions by MTT assay; type: functional; conditions: MDA-MB-231, 24 h, read-out: Activity
HT-29 [2] = test: Cytotoxicity against human HT-29 cells expressing carbonic anhydrase 9/12 assessed as cell viability at 1 mM after 24 hrs under normoxic conditions by MTT assay; type: functional; conditions: HT-29, 24 h, read-out: Activity
MDA-MB-231 [3] = test: Cytotoxicity against human MDA-MB-231 cells expressing carbonic anhydrase 9/12 assessed as cell viability at 100 uM after 24 hrs under hypoxic conditions by MTT assay; type: functional; conditions: MDA-MB-231, 24 h, read-out: Activity
MDA-MB-231 [4] = test: Cytotoxicity against human MDA-MB-231 cells expressing carbonic anhydrase 9/12 assessed as cell viability at 1 mM after 24 hrs under normoxic conditions by MTT assay; type: functional; conditions: MDA-MB-231, 24 h, read-out: Activity
MDA-MB-231 [5] = test: Cytotoxicity against human MDA-MB-231 cells expressing carbonic anhydrase 9/12 assessed as cell viability at 1 mM after 24 hrs under hypoxic conditions by MTT assay; type: functional; conditions: MDA-MB-231, 24 h, read-out: Activity
[6] = Cytotoxicity against human SKOV3 cells expressing carbonic anhydrase 9/12 assessed as cell viability at 1 mM after 24 hrs under hypoxic conditions by MTT assay; type: functional; conditions: SK-OV-3, 24 h, read-out: Activity
[7] = Cytotoxicity against human SKOV3 cells expressing carbonic anhydrase 9/12 assessed as cell viability at 10 uM after 24 hrs under hypoxic conditions by MTT assay; type: functional; conditions: SK-OV-3, 24 h, read-out: Activity
HT-29 [8] = test: Cytotoxicity against human HT-29 cells expressing carbonic anhydrase 9/12 assessed as cell viability at 100 uM after 24 hrs under hypoxic conditions by MTT assay; type: functional; conditions: HT-29, 24 h, read-out: Activity
[9] = Cytotoxicity against human SKOV3 cells expressing carbonic anhydrase 9/12 assessed as cell viability at 100 uM after 24 hrs under normoxic conditions by MTT assay; type: functional; conditions: SK-OV-3, 24 h, read-out: Activity
[10] = (§1) Cytotoxicity against human SKOV3 spheroids expressing carbonic anhydrase 9/12 assessed as cell viability at 100 uM after 24 hrs by WST8 assay; type: functional; conditions: SK-OV-3, 24 h, read-out: Activity
HT-29 [11] = test: Cytotoxicity against human HT-29 cells expressing carbonic anhydrase 9/12 assessed as cell viability at 10 uM after 24 hrs under normoxic conditions by MTT assay; type: functional; conditions: HT-29, 24 h, read-out: Activity
MDA-MB-231 [12] = test: Cytotoxicity against human MDA-MB-231 cells expressing carbonic anhydrase 9/12 assessed as cell viability at 10 uM after 24 hrs under normoxic conditions by MTT assay; type: functional; conditions: MDA-MB-231, 24 h, read-out: Activity
MDA-MB-231 [13] = test: Cytotoxicity against human MDA-MB-231 cells expressing carbonic anhydrase 9/12 assessed as cell viability at 100 uM after 24 hrs under normoxic conditions by MTT assay; type: functional; conditions: MDA-MB-231, 24 h, read-out: Activity
HT-29 [14] = test: Cytotoxicity against human HT-29 spheroids expressing carbonic anhydrase 9/12 assessed as cell viability at 1 mM after 24 hrs by WST8 assay; type: functional
MDA-MB-231 [15] = test: Cytotoxicity against human MDA-MB-231 spheroids expressing carbonic anhydrase 9/12 assessed as cell viability at 100 uM after 24 hrs by WST8 assay; type: functional
[16] = (§2) Cytotoxicity against human SKOV3 spheroids expressing carbonic anhydrase 9/12 assessed as cell viability at 1 mM after 24 hrs by WST8 assay; type: functional; conditions: SK-OV-3, 24 h, read-out: Activity
HT-29 [17] = test: Cytotoxicity against human HT-29 cells expressing carbonic anhydrase 9/12 assessed as cell viability at 100 uM after 24 hrs under normoxic conditions by MTT assay; type: functional; conditions: HT-29, 24 h, read-out: Activity
[18] = Cytotoxicity against human SKOV3 cells expressing carbonic anhydrase 9/12 assessed as cell viability at 100 uM after 24 hrs under hypoxic conditions by MTT assay; type: functional; conditions: SK-OV-3, 24 h, read-out: Activity
MDA-MB-231 [19] = test: Cytotoxicity against human MDA-MB-231 spheroids expressing carbonic anhydrase 9/12 assessed as cell viability at 1 mM after 24 hrs by WST8 assay; type: functional
HT-29 [20] = test: Cytotoxicity against human HT-29 spheroids expressing carbonic anhydrase 9/12 assessed as cell viability at 100 uM after 24 hrs by WST8 assay; type: functional
HT-29 [21] = test: Cytotoxicity against human HT-29 cells expressing carbonic anhydrase 9/12 assessed as cell viability at 1 mM after 24 hrs under hypoxic conditions by MTT assay; type: functional; conditions: HT-29, 24 h, read-out: Activity
[22] = Cytotoxicity against human SKOV3 cells expressing carbonic anhydrase 9/12 assessed as cell viability at 10 uM after 24 hrs under normoxic conditions by MTT assay; type: functional; conditions: SK-OV-3, 24 h, read-out: Activity
HT-29 [23] = test: Cytotoxicity against human HT-29 cells expressing carbonic anhydrase 9/12 assessed as cell viability at 10 uM after 24 hrs under hypoxic conditions by MTT assay; type: functional; conditions: HT-29, 24 h, read-out: Activity
[24] = Cytotoxicity against human SKOV3 cells expressing carbonic anhydrase 9/12 assessed as cell viability at 1 mM after 24 hrs under normoxic conditions by MTT assay; type: functional; conditions: SK-OV-3, 24 h, read-out: Activity
SK-OV-3 [25] = test: as §1; type: functional
SK-OV-3 [26] = test: as §2; type: functional
[27] = HT-29, 24 h, read-out: Activity
[28] = MDA-MB-231, 24 h, read-out: Activity

Structure (SMILES): NS(=O)(=O)c1nnc(NC(=O)CCC(=O)NCCOCCOCCNC(=O)CCC(=O)Nc2nnc(S(N)(=O)=O)s2)s1
- Ki (Carbonic anhydrase 9): 9.6 nM

Structure (SMILES): NS(=O)(=O)c1nnc(NS(=O)(=O)c2ccc(NC(=O)CCC(=O)NCCOCCOCCNC(=O)CCC(=O)Nc3ccc(S(=O)(=O)Nc4nnc(S(N)(=O)=O)s4)cc3)cc2)s1
- Activity (SK-OV-3 [25]): Active
- Ki (Carbonic anhydrase 9): 24.1 nM
- Activity (HT-29 [14]): Active
- Activity (MDA-MB-231 [15]): inactive
- Activity (SK-OV-3 [26]): Active
- Activity (MDA-MB-231 [19]): inactive
- Activity (HT-29 [20]): Active

Structure (SMILES): NS(=O)(=O)c1nnc(NC(=O)CCC(=O)O)s1
- Activity (SK-OV-3 [25]): Active
- Activity (HT-29 [14]): Active
- Activity (MDA-MB-231 [15]): inactive
- Activity (SK-OV-3 [26]): Active
- Activity (MDA-MB-231 [19]): inactive
- Activity (HT-29 [20]): Active

Structure (SMILES): NS(=O)(=O)c1nnc(NS(=O)(=O)c2ccc(NC(=O)CCC(=O)O)cc2)s1
- Activity (SK-OV-3 [25]): Active
- Activity (HT-29 [14]): Active
- Activity (MDA-MB-231 [15]): inactive
- Activity (SK-OV-3 [26]): Active
- Activity (MDA-MB-231 [19]): inactive
- Activity (HT-29 [20]): Active

Structure (SMILES): NS(=O)(=O)c1ccc(NC(=O)CCC(=O)NCCOCCOCCOCCOCCOCCOCCOCCOCCOCCOCCOCCOCCOCCOCCOCCOCCOCCOCCOCCOCCOCCOCCOCCOCCOCCOCCOCCOCCOCCOCCOCCOCCOCCOCCOCCOCCOCCOCCOCCOCCOCCOCCOCCOCCOCCNC(=O)CCC(=O)Nc2ccc(S(N)(=O)=O)cc2)cc1
- Ki (Carbonic anhydrase 9): 4.8 nM

Second part, led by results:

- Ki (Carbonic anhydrase 9): 2.5 nM
Structure (SMILES): NS(=O)(=O)c1nnc(NC(=O)CCC(=O)NCCOCCOCCOCCOCCOCCOCCOCCOCCOCCOCCOCCOCCOCCOCCOCCOCCOCCOCCOCCOCCOCCOCCOCCOCCOCCOCCOCCOCCOCCOCCOCCOCCOCCOCCOCCOCCOCCOCCOCCOCCOCCOCCOCCOCCOCCNC(=O)CCC(=O)Nc2nnc(S(N)(=O)=O)s2)s1
- viability at 10 µM (MDA-MB-231 [1]): 60%
- viability at 1000 µM (HT-29 [2]): 30%
- viability at 100 µM (MDA-MB-231 [3]): 50%
- viability at 1000 µM (MDA-MB-231 [4]): 30%
- viability at 1000 µM (MDA-MB-231 [5]): 30%
- viability at 1000 µM [6]: 30%
- viability at 10 µM [7]: 60%
- viability at 100 µM (HT-29 [8]): 50%
- viability at 100 µM [9]: 50%
- viability at 100 µM [10]: 80%
- viability at 10 µM (HT-29 [11]): 60%
- viability at 10 µM (MDA-MB-231 [12]): 60%
- viability at 100 µM (MDA-MB-231 [13]): 50%
- viability at 1000 µM (HT-29 [14]; [27]): 60%
- viability at 100 µM (MDA-MB-231 [15]; [28]): 90%
- viability at 1000 µM [16]: 50%
- viability at 100 µM (HT-29 [17]): 50%
- viability at 100 µM [18]: 50%
- viability at 1000 µM (MDA-MB-231 [19]; [28]): 80%
- viability at 100 µM (HT-29 [20]; [27]): 70%
- viability at 1000 µM (HT-29 [21]): 30%
- viability at 10 µM [22]: 60%
- viability at 10 µM (HT-29 [23]): 60%
- viability at 1000 µM [24]: 30%

- Ki (Carbonic anhydrase 9): 1.7 nM
Structure (SMILES): NS(=O)(=O)c1nnc(NS(=O)(=O)c2ccc(NC(=O)CCC(=O)NCCOCCOCCOCCOCCOCCOCCOCCOCCOCCOCCOCCOCCOCCOCCOCCOCCOCCOCCOCCOCCOCCOCCOCCOCCOCCOCCOCCOCCOCCOCCOCCOCCOCCOCCOCCOCCOCCOCCOCCOCCOCCOCCOCCOCCOCCNC(=O)CCC(=O)Nc3ccc(S(=O)(=O)Nc4nnc(S(N)(=O)=O)s4)cc3)cc2)s1

- Ki (Carbonic anhydrase 9): 2.9 nM
Structure (SMILES): NS(=O)(=O)c1ccc(NC(=O)CCC(=O)NCCOCCOCCNC(=O)CCC(=O)Nc2ccc(S(N)(=O)=O)cc2)cc1
- Activity (SK-OV-3 [25]): Active
- Activity (HT-29 [14]): Active
- Activity (MDA-MB-231 [15]): inactive
- Activity (SK-OV-3 [26]): Active
- Activity (MDA-MB-231 [19]): inactive
- Activity (HT-29 [20]): Active
